Experiments:
hERG potassium channel [1] = biological target: T1, hERG potassium channel (Homo sapiens, UniProt Q12809); experiment: biochemical; details: hERG / Ki (nM)
hERG potassium channel [2] = biological target: T1, hERG potassium channel; experiment: biochemical; details: hERG / IC50 (nM)
hERG potassium channel [3] = biological target: T1, hERG potassium channel; experiment: in vitro; details: % inhibition
hERG potassium channel [4] = biological target: T1, hERG potassium channel; experiment: radioligand competition binding, membranes

T1 sequence (Q12809 whole entry): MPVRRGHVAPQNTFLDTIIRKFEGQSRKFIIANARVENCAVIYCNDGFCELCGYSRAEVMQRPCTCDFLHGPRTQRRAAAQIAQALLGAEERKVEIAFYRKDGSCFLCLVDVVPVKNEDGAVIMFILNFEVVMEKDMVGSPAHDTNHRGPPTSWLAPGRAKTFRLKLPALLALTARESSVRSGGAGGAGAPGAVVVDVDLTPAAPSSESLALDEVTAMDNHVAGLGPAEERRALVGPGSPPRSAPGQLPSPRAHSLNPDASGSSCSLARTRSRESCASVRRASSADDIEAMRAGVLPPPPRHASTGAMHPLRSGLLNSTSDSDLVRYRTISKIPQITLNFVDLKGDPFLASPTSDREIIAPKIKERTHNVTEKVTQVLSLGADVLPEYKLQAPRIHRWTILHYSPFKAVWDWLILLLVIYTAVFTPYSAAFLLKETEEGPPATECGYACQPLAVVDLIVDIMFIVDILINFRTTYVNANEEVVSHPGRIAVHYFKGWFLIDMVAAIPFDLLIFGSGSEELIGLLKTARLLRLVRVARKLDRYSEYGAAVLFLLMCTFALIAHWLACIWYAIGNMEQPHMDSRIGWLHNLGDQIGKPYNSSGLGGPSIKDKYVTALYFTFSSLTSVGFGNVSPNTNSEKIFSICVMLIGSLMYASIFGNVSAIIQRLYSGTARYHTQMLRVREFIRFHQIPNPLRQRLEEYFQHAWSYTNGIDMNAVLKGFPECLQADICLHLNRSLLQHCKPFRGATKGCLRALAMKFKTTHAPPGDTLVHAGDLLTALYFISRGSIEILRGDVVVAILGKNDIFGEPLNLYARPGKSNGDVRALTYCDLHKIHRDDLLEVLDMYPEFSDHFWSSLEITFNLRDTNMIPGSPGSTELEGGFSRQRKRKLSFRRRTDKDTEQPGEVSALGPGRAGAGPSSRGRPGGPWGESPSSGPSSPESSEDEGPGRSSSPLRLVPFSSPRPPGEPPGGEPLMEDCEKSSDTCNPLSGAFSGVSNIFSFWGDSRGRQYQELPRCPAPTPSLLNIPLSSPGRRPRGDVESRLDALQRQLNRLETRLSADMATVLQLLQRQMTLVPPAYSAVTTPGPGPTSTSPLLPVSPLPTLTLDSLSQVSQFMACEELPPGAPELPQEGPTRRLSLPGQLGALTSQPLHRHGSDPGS

SMILES	Ki (hERG potassium channel [1]; Synthesis=NBI) [nM]	IC50 (hERG potassium channel [2]; Synthesis=NBI) [nM]	inhibition at 10 µM (hERG potassium channel [3]) [%]	Ki (hERG potassium channel [4]) [nM]	Ki (hERG potassium channel [1]; Synthesis=Enamine) [nM]	IC50 (hERG potassium channel [2]; Synthesis=Enamine) [nM]
CN(C)CCCn1nc(-c2cccc(Cl)c2)c2ccccc2c1=O [GMD_9433]	510	721	92.5			
CN(C)CCCn1nc(-c2cccnc2)c2ccccc2c1=O [GMD_11677]	7870	11100	31.1			
CN(C)CCCn1nc(-c2cccs2)c2ccccc2c1=O [GMD_12264]	1340	1890				
CN(C)CCCn1nc(-c2ccc(Cl)cc2)c2ccccc2c1=O [GMD_12503]	866	1220	72.4			
CN(C)CCn1nc(-c2ccccc2Cl)c2ccccc2c1=O [GMD_12767]	1120	1590	84.2			
CN(C)CCCn1nc(-c2ccccn2)c2ccccc2c1=O [GMD_13497]	4300	6070	33.6			
CN(C)CCn1nc(-c2cccc(Cl)c2)c2ccccc2c1=O [GMD_13630]	1710	2420	79.1			
CN(C)CCCn1nc(-c2ccccc2)c2ccccc2c1=O [GMD_14496]	2530	3580	54.2			
CN(C)CCN(C)c1nc2ccccc2n1Cc1ccccc1F [GMD_15306]	2150	3040	40.7			
CN(C)CCCn1nc(-c2cncc(Cl)c2)c2ccccc2c1=O [GMD_27933]	684	968	80.4			
CN(C)CCn1nc(-c2ccc(Cl)cc2)c2ccccc2c1=O [NBI1099469]	1230	1740	71.7			
CSc1ncccc1-c1nn(CCCN(C)C)c(=O)c2ccccc12 [NBI1100649]	6150	8700	28.2			
CN(C)CCCn1nc(-c2ccc(F)cc2)c2ccccc2c1=O [compound 1, s_49__14518112__1114614]				1490		
CN(C)CCCn1nc(-c2cccs2)c2ccccc2c1=O [compound 2, s_49__14518112__101877]				946		
CN(C)CCCn1nc(-c2ccc(Cl)cc2)c2ccccc2c1=O [compound 3, s_49__14518112__88929]				643		
CN(C)CCN(Cc1ccccc1)c1nc2cccc(F)c2s1 [compound 4, s_27__7100858__10689034]				1590		
CN(C)CCCc1nc2ccccc2n1Cc1ccccc1 [compound 5, GMD_18471]		565	88.9	400		
CN(C)CCCN(Cc1ccc(Cl)c(Cl)c1)c1ncnc2ccn(C)c12 [m_27____7425384____18313558]			75.9		604	854
CN(C)CCCN(CCCN(C)C)c1ccc2c(Br)ccc(Cl)c2n1 [s_27____6492506____8281582]			69		2300	3250
CN(C)CCN(Cc1ccccc1)c1nc2cccc(F)c2s1 [s_27____7100858____10689034]			83			2240

SMILES	Ki (hERG potassium channel [1]; Synthesis=NBI) [nM]	IC50 (hERG potassium channel [2]; Synthesis=NBI) [nM]	inhibition at 10 µM (hERG potassium channel [3]) [%]	Ki (hERG potassium channel [4]) [nM]	Ki (hERG potassium channel [1]; Synthesis=Enamine) [nM]	IC50 (hERG potassium channel [2]; Synthesis=Enamine) [nM]
CN(C)CCN(Cc1cccc(Cl)c1)c1cncc(Cl)n1 [s_27____7100894____215633]			78.1		1180	1660
CN(C)CCN(Cc1cccc(Cl)c1)c1ncncc1Cl [s_27____7100894____9139880]			91.6		507	717
CN(C)CCN(Cc1cccc(Cl)c1)c1nccc2cnccc12 [s_27____7100894____16733638]			99.7		84	119
CN(C)CCN(Cc1cccs1)c1nccc(F)c1Cl [s_27____7100914____15703356]			55.7		5180	7320
CN(C)CCN(Cc1cccs1)c1ccncc1Cl [s_27____7100914____16711384]			49.5		6060	8570
CN(C)CCCN(Cc1ccc(Cl)c(Cl)c1)c1ncc(Cl)cc1[N+](=O)[O-] [s_27____7425384____7556080]			78.8		729	1030
CCc1csc(N(CCCN(C)C)Cc2ccc(Cl)c(Cl)c2)n1 [s_27____7425384____12641810]			86.2		757	1070
CSc1nccc(N(CCCN(C)C)Cc2ccc(Cl)c(Cl)c2)n1 [s_27____7425384____15607934]			86.6		772	1090
CN(C)CCCN(Cc1ccc(Cl)c(Cl)c1)c1nccc2cccnc12 [s_27____7425384____16803680]			96.3		64.9	91.8
CN(C)CCCn1nc(-c2ccccc2)c2ccccc2c1=O [s_49____14518112____88928]					2620	3710
CN(C)CCCn1nc(-c2ccc(Cl)cc2)c2ccccc2c1=O [s_49____14518112____88929]						909
CN(C)CCCn1nc(-c2cccs2)c2ccccc2c1=O [s_49____14518112____101877]			81.7			1340
CN(C)CCCn1nc(-c2ccc(F)cc2)c2ccccc2c1=O [s_49____14518112____1114614]			80.8			2100
CN(C)CCn1c(-c2ccccc2Cl)nc2ccccc21 [s_60____1081314____90809]			2.2		4990	7050
CN(C)CCN(Cc1ccccc1F)C(=O)c1csc2ccccc12 [s_527____7348186____205300]			55.6		4980	7040
CN(C)CCN(Cc1ccccc1)Cc1nc2ccccc2n1C [s_270004____10205888____7548808]			75		1050	1480
CN(C)CCN(Cc1ccccc1F)Cc1c(Cl)ccc2cccnc12 [s_270004____10205940____8625260]			88.9		58.3	82.5
CN(C)CCN(Cc1cccc(F)c1)Cc1c(Cl)ccc2cccnc12 [s_270004____10206024____8625260]			97		110	156
CN(C)CCN(Cc1ccccc1F)C(=O)N1CCCc2c(Cl)ccnc21 [s_272164____17323936____17325014]			90.6		300	425

Source: doi:10.1101/2023.02.14.528391v1 (biorxiv, 2023)
